Assay results published in patent US20190248779A1, “COMPOUNDS, COMPOSITIONS, AND METHODS FOR INCREASING CFTR ACTIVITY” (Proteostasis Therapeutics, Inc., priority 2016, published 2019).

Biological target: T1, ΔF508-CFTR (Homo sapiens, UniProt P13569, DEL508-508)
T1 construct: Primary lung epithelial cells homozygous for the Cystic Fibrosis-causing ΔF508 mutation were differentiated for a minimum of 4 weeks; endogenous in cells; host or cells: primary lung (bronchial) epithelial cells (hBE) homozygous for ΔF508, differentiated at an air-liquid interface
T1 sequence (P13569 with tags, fused parts or gaps DEL508-508): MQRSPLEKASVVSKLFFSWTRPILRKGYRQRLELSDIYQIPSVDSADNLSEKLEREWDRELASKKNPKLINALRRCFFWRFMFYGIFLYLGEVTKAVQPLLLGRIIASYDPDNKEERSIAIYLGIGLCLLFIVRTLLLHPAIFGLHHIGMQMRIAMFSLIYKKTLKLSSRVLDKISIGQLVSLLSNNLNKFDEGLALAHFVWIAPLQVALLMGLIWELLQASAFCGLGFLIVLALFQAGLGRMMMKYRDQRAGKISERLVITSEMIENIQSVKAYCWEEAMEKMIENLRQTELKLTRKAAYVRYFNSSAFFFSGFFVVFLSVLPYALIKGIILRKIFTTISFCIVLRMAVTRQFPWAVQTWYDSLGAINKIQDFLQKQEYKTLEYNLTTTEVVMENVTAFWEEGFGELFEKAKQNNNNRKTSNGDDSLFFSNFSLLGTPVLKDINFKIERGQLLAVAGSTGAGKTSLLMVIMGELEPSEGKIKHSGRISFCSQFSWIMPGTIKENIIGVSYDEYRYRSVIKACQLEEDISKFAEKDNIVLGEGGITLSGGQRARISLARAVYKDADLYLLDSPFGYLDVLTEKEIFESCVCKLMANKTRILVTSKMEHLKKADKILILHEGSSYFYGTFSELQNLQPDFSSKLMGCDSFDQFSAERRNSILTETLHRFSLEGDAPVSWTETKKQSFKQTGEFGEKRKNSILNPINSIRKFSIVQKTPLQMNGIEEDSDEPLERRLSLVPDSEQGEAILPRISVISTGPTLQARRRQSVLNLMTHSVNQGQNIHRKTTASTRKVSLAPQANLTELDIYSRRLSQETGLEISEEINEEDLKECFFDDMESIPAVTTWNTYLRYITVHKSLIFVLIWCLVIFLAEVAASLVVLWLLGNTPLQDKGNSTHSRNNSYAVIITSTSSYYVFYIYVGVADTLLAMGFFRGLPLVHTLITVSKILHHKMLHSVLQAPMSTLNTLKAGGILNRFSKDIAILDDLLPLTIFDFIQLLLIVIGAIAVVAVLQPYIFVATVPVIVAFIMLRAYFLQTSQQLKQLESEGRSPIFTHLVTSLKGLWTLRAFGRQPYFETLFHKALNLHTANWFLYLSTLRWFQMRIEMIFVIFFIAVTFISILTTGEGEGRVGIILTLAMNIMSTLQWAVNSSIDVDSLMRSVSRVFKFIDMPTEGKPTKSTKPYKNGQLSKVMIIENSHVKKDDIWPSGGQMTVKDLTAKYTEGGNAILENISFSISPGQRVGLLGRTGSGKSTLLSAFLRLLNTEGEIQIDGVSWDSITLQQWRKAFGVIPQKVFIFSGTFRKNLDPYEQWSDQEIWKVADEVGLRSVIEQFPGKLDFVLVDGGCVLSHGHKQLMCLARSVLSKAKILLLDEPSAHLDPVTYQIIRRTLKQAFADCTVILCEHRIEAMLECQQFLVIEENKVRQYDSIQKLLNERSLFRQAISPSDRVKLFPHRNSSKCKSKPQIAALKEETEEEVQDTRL
Test: hBE equivalent current (Ieq) assay
Assay type: cell-based
Details: 24 h, relative to a CFTR amplifier at 3 uM, AUC of equivalent chloride current, primary lung epithelial cells homozygous for ΔF508; for Activity 3 μM: compound at 3 μM; for Activity 10 μM: compound at 10 μM
Description: ii. hBE Equivalent Current (Ieq) Assay
Primary lung epithelial cells homozygous for the Cystic Fibrosis-causing ΔF508 mutation were differentiated for a minimum of 4 weeks in an air-liquid interface on Costar 24 well HTS filter plates prior to the equivalent current (Ieq) measurements. Cells were apically mucus-washed for 30 minutes 24 h prior to treatment with compounds. The basolateral media was removed and replaced with media containing the compound of interest diluted to its final concentration from DMSO stocks. Treated cells were incubated at 37° C. and 5% CO2 for 24 hours. At the end of the treatment period, the media was changed to the Ieq experimental solution for 2 hours before the experiment and plates are maintained in a CO2-free incubator during this period. The plates containing the cells were then placed in pre-warmed heating blocks at 36° C.±0.5 for 15 minutes before measurements are taken. The transepithelial voltage (VT) and conductance (GT) were measured using a custom 24 channel current clamp (TECC-24) with 24 well electrode manifold. The Ieq assay measurements were made following additions with standardized time periods:
1. The baseline VT and GT values were measured for approximately 20 minutes.
2. Benzamil was added to block ENaC for 15 minutes.
3. Forskolin plus VX-770 were added to maximally activate ΔF508-CFTR for 27 minutes.
4. Bumetanide was added to inhibit the NaK2Cl cotransporter and shut-off secretion of chloride.
The activity data captured was the area under the curve (AUC) for the traces of the equivalent chloride current. The AUC was collected from the time of the forskolin/VX-770 addition until the inhibition by bumetanide addition. Correction in response to compound treatment was scored as the increase in the AUC for compound-treated samples over that of vehicle-treated samples.
The results are shown below in Table 1. + indicates activity <150% of a CFTR amplifier with compound at concentration shown and amplifier at 3 uM; ++ indicates activity >150% of a CFTR amplifier with compound at concentration shown and amplifier at 3 uM.

| Compound | Activity 3 μM | Activity 10 μM |
| --- | --- | --- |
| COc1cccc(-c2ccc(=O)n(C(C)C(=O)Nc3ccc4cc[nH]c4c3)n2)c1 (stereo not shown) [Compound 2, N-(1H-Indol-6-yl)-2-[3-(3-methoxyphenyl)-6-oxo-1,6-dihydropyridazin-1-yl]propanamide] | + (activity <150% of a CFTR amplifier with compound at concentration shown and amplifier at 3 uM) | + (activity <150% of a CFTR amplifier with compound at concentration shown and amplifier at 3 uM) |
| COc1cccc(-c2ccc(=O)n(C(C)C(=O)Nc3ccc4[nH]ccc4c3)n2)c1 (stereo not shown) [Compound 3, N-(1H-Indol-5-yl)-2-(3-(3-methoxyphenyl)-6-oxopyridazin-1(6H)-yl)propanamide] | + (activity <150% of a CFTR amplifier with compound at concentration shown and amplifier at 3 uM) | + (activity <150% of a CFTR amplifier with compound at concentration shown and amplifier at 3 uM) |
| COc1cccc(-c2ccc(=O)n(C(C)C(=O)NC3CCCCC3)n2)c1 (stereo not shown) [Compound 4, N-Cyclohexyl-2-(3-(3-methoxyphenyl)-6-oxopyridazin-1(6H)-yl)propanamide] | + (activity <150% of a CFTR amplifier with compound at concentration shown and amplifier at 3 uM) | + (activity <150% of a CFTR amplifier with compound at concentration shown and amplifier at 3 uM) |
| COc1cccc(-c2ccc(=O)n(C(C)C(=O)Nc3ccccn3)n2)c1 (stereo not shown) [Compound 5, 2-(3-(3-Methoxyphenyl)-6-oxopyridazin-1(6H)-yl)-N-(pyridin-2-yl)propanamide] | + (activity <150% of a CFTR amplifier with compound at concentration shown and amplifier at 3 uM) | + (activity <150% of a CFTR amplifier with compound at concentration shown and amplifier at 3 uM) |
| COc1cccc(-c2ccc(=O)n(C(C)C(=O)Nc3cccnc3)n2)c1 (stereo not shown) [Compound 6, 2-(3-(3-Methoxyphenyl)-6-oxopyridazin-1(6H)-yl)-N-(pyridin-3-yl)propanamide] | + (activity <150% of a CFTR amplifier with compound at concentration shown and amplifier at 3 uM) | + (activity <150% of a CFTR amplifier with compound at concentration shown and amplifier at 3 uM) |
| CC(C(=O)Nc1cc(F)cc(F)c1)n1nc(-c2ccc3cc[nH]c3c2)ccc1=O (stereo not shown) [Compound 7, 2-(3-(1H-Indol-6-yl)-6-oxopyridazin-1(6H)-yl)-N-(3,5-difluorophenyl)propanamide] | + (activity <150% of a CFTR amplifier with compound at concentration shown and amplifier at 3 uM) | + (activity <150% of a CFTR amplifier with compound at concentration shown and amplifier at 3 uM) |
| COc1cccc(-c2ccc(=O)n(C(C)C(=O)Nc3ccc(C(F)(F)F)cn3)n2)c1 (stereo not shown) [Compound 8, 2-[3-(3-Methoxyphenyl)-6-oxo-1,6-dihydropyridazin-1-yl]-N-[5-(trifluoromethyl)pyridin-2-yl]propanamide] | ++ (activity >150% of a CFTR amplifier with compound at concentration shown and amplifier at 3 uM) | ++ (activity >150% of a CFTR amplifier with compound at concentration shown and amplifier at 3 uM) |
| COc1cccc(-c2ccc(=O)n(C(C)C(=O)Nc3ccc(C(F)(F)F)nc3)n2)c1 (stereo not shown) [Compound 9, 2-(3-(3-Methoxyphenyl)-6-oxopyridazin-1(6H)-yl)-N-(6-(trifluoromethyl)pyridin-3-yl)propanamide] | ++ (activity >150% of a CFTR amplifier with compound at concentration shown and amplifier at 3 uM) | + (activity <150% of a CFTR amplifier with compound at concentration shown and amplifier at 3 uM) |
| COc1cccc(-c2ccc(=O)n(C(C)C(=O)Nc3cccc(C(F)(F)F)n3)n2)c1 (stereo not shown) [Compound 10, 2-(3-(3-Methoxyphenyl)-6-oxopyridazin-1(6H)-yl)-N-(6-(trifluoromethyl)pyridin-2-yl)propanamide] | ++ (activity >150% of a CFTR amplifier with compound at concentration shown and amplifier at 3 uM) | ++ (activity >150% of a CFTR amplifier with compound at concentration shown and amplifier at 3 uM) |
| COc1cccc(-c2ccc(=O)n(C(C)C(=O)Nc3cc(C(F)(F)F)ccn3)n2)c1 (stereo not shown) [Compound 11, 2-(3-(3-Methoxyphenyl)-6-oxopyridazin-1(6H)-yl)-N-(4-(trifluoromethyl)pyridin-2-yl)propanamide] | ++ (activity >150% of a CFTR amplifier with compound at concentration shown and amplifier at 3 uM) | ++ (activity >150% of a CFTR amplifier with compound at concentration shown and amplifier at 3 uM) |
| COc1cccc(-c2ccc(=O)n(C(C)C(=O)Nc3cncc(C(F)(F)F)c3)n2)c1 (stereo not shown) [Compound 12, 2-(3-(3-Methoxyphenyl)-6-oxopyridazin-1(6H)-yl)-N-(5-(trifluoromethyl)pyridin-3-yl)propanamide] | + (activity <150% of a CFTR amplifier with compound at concentration shown and amplifier at 3 uM) | + (activity <150% of a CFTR amplifier with compound at concentration shown and amplifier at 3 uM) |
| CC(C(=O)Nc1ccc(C(F)(F)F)cc1)n1nc(-c2cccs2)ccc1=O (stereo not shown) [Compound 13, 2-[6-oxo-3-(thiophen-2-yl)-1,6-dihydropyridazin-1-yl]-N-[4-(trifluoromethyl)phenyl]propanamide] | ++ (activity >150% of a CFTR amplifier with compound at concentration shown and amplifier at 3 uM) | + (activity <150% of a CFTR amplifier with compound at concentration shown and amplifier at 3 uM) |
| CC(C(=O)Nc1ccc(C(F)(F)F)cc1)n1nc(-c2ccc(Cl)s2)ccc1=O (stereo not shown) [Compound 14, 2-(3-(5-Chlorothiophen-2-yl)-6-oxopyridazin-1(6H)-yl)-N-(4-(trifluoromethyl)phenyl)propanamide] | ++ (activity >150% of a CFTR amplifier with compound at concentration shown and amplifier at 3 uM) | ++ (activity >150% of a CFTR amplifier with compound at concentration shown and amplifier at 3 uM) |
| CC(C(=O)Nc1ccc(C(F)(F)F)cc1)n1nc(-c2ccsc2)ccc1=O (stereo not shown) [Compound 15, 2-(6-Oxo-3-(thiophen-3-yl)pyridazin-1(6H)-yl)-N-(4-(trifluoromethyl)phenyl)propanamide] | ++ (activity >150% of a CFTR amplifier with compound at concentration shown and amplifier at 3 uM) | + (activity <150% of a CFTR amplifier with compound at concentration shown and amplifier at 3 uM) |
| CC(C(=O)Nc1ccc(C(F)(F)F)cc1)n1nc(-c2csc(Cl)c2)ccc1=O (stereo not shown) [Compound 16, 2-[3-(5-Chlorothiophen-3-yl)-6-oxo-1,6-dihydropyridazin-1-yl]-N-[4-(trifluoromethyl)phenyl]propanamide] | ++ (activity >150% of a CFTR amplifier with compound at concentration shown and amplifier at 3 uM) | ++ (activity >150% of a CFTR amplifier with compound at concentration shown and amplifier at 3 uM) |
| CC(C(=O)Nc1ccc(C(F)(F)F)cn1)n1nc(-c2cccc(Cl)c2)ccc1=O (stereo not shown) [Compound 17, 2-(3-(3-Chlorophenyl)-6-oxopyridazin-1(6H)-yl)-N-(5-(trifluoromethyl)pyridin-2-yl)propanamide] | ++ (activity >150% of a CFTR amplifier with compound at concentration shown and amplifier at 3 uM) | ++ (activity >150% of a CFTR amplifier with compound at concentration shown and amplifier at 3 uM) |
| COc1csc(-c2ccc(=O)n(C(C)C(=O)Nc3ccc(C(F)(F)F)cc3)n2)c1 (stereo not shown) [Compound 18, 2-(3-(4-Methoxythiophen-2-yl)-6-oxopyridazin-1(6H)-yl)-N-(4-(trifluoromethyl)phenyl)propanamide] | – | + (activity <150% of a CFTR amplifier with compound at concentration shown and amplifier at 3 uM) |
| COc1cc(-c2ccc(=O)n(C(C)C(=O)Nc3ccc(C(F)(F)F)cc3)n2)ccn1 (stereo not shown) [Compound 19, 2-(3-(2-Methoxypyridin-4-yl)-6-oxopyridazin-1(6H)-yl)-N-(4-(trifluoromethyl)phenyl)propanamide] | + (activity <150% of a CFTR amplifier with compound at concentration shown and amplifier at 3 uM) | + (activity <150% of a CFTR amplifier with compound at concentration shown and amplifier at 3 uM) |
| COc1cncc(-c2ccc(=O)n(C(C)C(=O)Nc3ccc(C(F)(F)F)cc3)n2)c1 (stereo not shown) [Compound 20, 2-(3-(5-Methoxypyridin-3-yl)-6-oxopyridazin-1(6H)-yl)-N-(4-(trifluoromethyl)phenyl)propanamide] | ++ (activity >150% of a CFTR amplifier with compound at concentration shown and amplifier at 3 uM) | ++ (activity >150% of a CFTR amplifier with compound at concentration shown and amplifier at 3 uM) |
